Experimental data: ChEMBL document CHEMBL2073742, “The rat canalicular conjugate export pump (Mrp2) is down-regulated in intrahepatic and obstructive cholestasis” (Gastroenterology, 1997)

Molecular target: ATP-binding cassette sub-family C member 2 (Rattus norvegicus, UniProt Q63120)
Assay: TP_TRANSPORTER: Western in vivo, liver of SD rat
Type: functional, organism-based, Sprague-Dawley

ATP-binding cassette sub-family C member 2, sequence (Q63120 whole entry): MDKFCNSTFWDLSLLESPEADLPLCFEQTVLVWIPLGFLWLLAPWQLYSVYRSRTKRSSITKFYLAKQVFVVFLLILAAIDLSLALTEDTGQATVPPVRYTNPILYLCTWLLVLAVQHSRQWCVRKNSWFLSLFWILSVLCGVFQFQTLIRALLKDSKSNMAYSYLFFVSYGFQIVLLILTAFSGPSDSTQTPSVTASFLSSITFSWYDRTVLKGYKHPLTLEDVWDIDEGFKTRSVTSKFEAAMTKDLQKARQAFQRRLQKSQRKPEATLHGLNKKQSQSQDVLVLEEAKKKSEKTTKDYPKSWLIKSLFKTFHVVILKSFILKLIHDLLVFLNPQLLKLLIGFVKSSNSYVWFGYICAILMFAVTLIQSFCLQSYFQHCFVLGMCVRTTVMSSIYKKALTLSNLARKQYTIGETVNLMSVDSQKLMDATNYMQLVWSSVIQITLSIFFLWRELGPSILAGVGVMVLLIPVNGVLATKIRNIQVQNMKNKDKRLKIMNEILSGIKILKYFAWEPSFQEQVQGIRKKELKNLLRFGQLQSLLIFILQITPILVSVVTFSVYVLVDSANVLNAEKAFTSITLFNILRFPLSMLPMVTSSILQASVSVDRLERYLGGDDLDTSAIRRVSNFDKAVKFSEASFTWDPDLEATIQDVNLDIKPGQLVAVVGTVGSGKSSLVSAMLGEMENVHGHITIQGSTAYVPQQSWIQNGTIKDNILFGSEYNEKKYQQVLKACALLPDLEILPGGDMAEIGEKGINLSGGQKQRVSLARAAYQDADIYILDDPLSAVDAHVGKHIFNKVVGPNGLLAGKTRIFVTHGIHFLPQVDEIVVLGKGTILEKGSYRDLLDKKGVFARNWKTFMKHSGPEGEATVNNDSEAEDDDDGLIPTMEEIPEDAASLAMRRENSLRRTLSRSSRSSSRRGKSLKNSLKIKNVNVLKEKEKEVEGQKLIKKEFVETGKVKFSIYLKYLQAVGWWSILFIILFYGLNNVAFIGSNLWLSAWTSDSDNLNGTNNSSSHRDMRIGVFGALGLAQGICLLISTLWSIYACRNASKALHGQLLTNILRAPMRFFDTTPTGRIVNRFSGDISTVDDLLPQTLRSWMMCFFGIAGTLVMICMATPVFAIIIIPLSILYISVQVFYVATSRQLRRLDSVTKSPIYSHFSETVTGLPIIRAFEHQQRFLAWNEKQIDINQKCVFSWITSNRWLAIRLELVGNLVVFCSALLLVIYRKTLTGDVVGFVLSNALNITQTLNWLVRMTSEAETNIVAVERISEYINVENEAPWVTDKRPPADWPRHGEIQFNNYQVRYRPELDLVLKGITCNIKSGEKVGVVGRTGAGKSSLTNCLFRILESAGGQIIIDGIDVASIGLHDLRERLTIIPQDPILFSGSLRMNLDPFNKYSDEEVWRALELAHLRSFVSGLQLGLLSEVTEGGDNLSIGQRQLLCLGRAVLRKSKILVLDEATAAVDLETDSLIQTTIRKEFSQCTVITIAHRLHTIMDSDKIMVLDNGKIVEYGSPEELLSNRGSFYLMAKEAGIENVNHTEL

C#C[C@]1(O)CC[C@H]2[C@@H]3CCc4cc(O)ccc4[C@H]3CC[C@@]21C [ETHINYL ESTRADIOL]
Activity: inducer [Decrease]
